Format in all cases: cell-based
Assay [1] concerns T cells (splenic T cell proliferation, co-cultured spleen cells from two strains of mice). In words: Mixed lymphocyte response (MLR). The conditions noted are these: Mus musculus, Anti-inflammatory/Anti-proliferative Activity. An excerpt:
i Mixed lymphocyte response (MLR).
(§1) The MLR assay measures the effects of a study compound on the activation and antigen presentation of T-lymphocytes, therefore determining immunomodulatory properties. The mouse spleen cell mitogen-induced blastogenesis and the BUD-8 human fibroblast proliferation assays measure the effects of the compounds of the present invention on cellular proliferation of cells involved in the pathogenesis of autoimmune diseases. These two assays are appropriate as screens to ascertain anti-inflammatory and/or autoimmune diseases.
The MLR is a classical assay used to measure T cell function by studying the proliferation response of T cells which are activated in vitro by genetically disparate stimulator cells. This is accomplished by co-culturing spleen cells from two different strains of mice. Splenic T cell proliferation occurs as a result of cellular activation signals generated by the ongoing cellular interactions.
(§2) The detailed experimental procedure for the above-mentioned assays is described in detail in U.S. Pat. Nos. 5,360,790 and 5,367,062 incorporated herein by reference.

Assay [2] concerns human tumor cell lines (approximately 60). In words: NCI in vitro human tumor cell line screen (SRB), mean graph midpoints over all cell lines. The conditions noted are these: for CC50 / GI50 / IC (TGI): Homo sapiens, average of all cell lines, 48 h; for CC50: 50% cell death (-50% growth), read-out: log10 LC50 mean graph midpoint (converted); for IC (TGI): total cell growth inhibition (0% growth), read-out: log10 TGI mean graph midpoint (converted).
Method: In performing in vitro human tumor cell line assay, a total of approximately 60 human tumor cell lines derived from ten cancer types (leukemia, non-small cell lung cancer, small cell lung cancer, colon cancer, CNS cancer, melanoma, ovarian cancer, renal cancer, breast cancer and prostate cancer) were used in this assay. Compounds were tested at different concentrations against every cell line. All lines are inoculated into a series of standard 96-well microtiter plates on day 0, in the majority of cases at 20,000 cells/well, and then pre-incubated in the absence of testing agent for 24 hours. A testing agent was then added in five 10-fold dilutions and incubated for a further period of 48 hours. Following this, the cells are fixed in situ, washed, and dried. Sulforhodamine B (SRB, protein binding dye) is added, followed by further washing and drying of the stained adherent cell mass. The bound stain is solubilized and measured spectrophotometrically on an automatic plate reader.
For each compound, dose response curves for each cell line were measured with five different drug concentrations, and the concentration causing 50% cell growth inhibition (GI50), total cell growth inhibition (TGI, 0% growth), and 50% cell death (LC50, -50% growth) compared with the control was calculated. […] In these graphs, the mean logarithmic value of GI50 in all cell lines for each tested compound is used as the midpoint of that bar graph.

Assay [3] deals with mouse spleen cell (T-lymphocyte). In words: Concanavalin A (CON-A) assay, mouse spleen cell mitogen induced blastogenesis. The conditions noted are these: Anti-inflammatory/Anti-proliferative Activity.
Source text: iii Concanavalin A assay (the mouse spleen cell mitogen induced blastogenesis).
as §1
It is known that the induction and maintenance of most inflammatory diseases are typically due to the unrestricted activity of T-lymphocytes. Therefore, it is advantageous to identify compounds which are modulators of T-lymphocyte activity for eventual use in the regulation of inflammatory diseases, including acquired immune deficiency syndrome, psoriasis, systemic lupus, erythromatosus, and rheumatoid arthritis.
as §2

The subject of the next assay is BUD-8 human fibroblast. In words: BUD-8 human cell line fibroblast proliferation assay (FIB.). To be noted: Anti-inflammatory/Anti-proliferative Activity.
Source text: ii BUD-8 human cell line fibroblast proliferation assay.
as §1
The skin cell fibroblast line, BUD-8, was originally derived from the normal skin of a person and can now be obtained from the American Type Culture Collection, Rockville, Md.
as §2

[4] abbreviates: 50% cell growth inhibition, read-out: GI50 (average).
[5] abbreviates: log10 of molar concentration, read-out: log10 I50 (log10 GI50 mean graph midpoint) (converted).

The source of these data is patent US5637570A, “Disubstituted and trisubstituted derivatives of 2,3:4,6-di-O-isopropylidene-α-L-xylo-2-hexulofuranosonic acid having anti-cancer, anti-inflammatory and anti-proliferative activity” (Chemora Pharmochem, priority 1995, dated 1997).

Like-named read-outs stand apart in the source and are kept apart here.

By IC50 is commonly meant the concentration needed to halve the response being measured. A higher IC50 goes with weaker potency in that assay. One may read the GI50 as the concentration giving 50% growth inhibition.

As for `CCCCCCCCCCCCOC[C@@]12O[C@@H](CN3CCCC3)[C@@H](O)[C@@H]1OC(C)(C)O2` [Ia, 2,3-O-Isopropylidene-6-deoxy-6-(1-pyrrolidinyl)-1-O-dodecyl-α-L-xylo-2-hexulofuranose], the IC50 in assay [1] is less than 1 µM; in assay [3], less than 1 µM; with BUD-8 human fibroblast it was less than 3 µM. For the same compound, the CC50 in assay [2] is 13.2 µM. The 50% growth inhibitory concentration (GI50) was 4.21 µM in assay [2] (setting [4]) and 0.204 µM in assay [2] (setting [5]). Further, the IC (TGI) in assay [2] was 4.37 µM.
For the compound `CCCCCCCCCCCCOC[C@@]12O[C@@H](CN3CCCCCC3)[C@@H](O)[C@@H]1OC(C)(C)O2` [Id, 2,3-O-Isopropylidene-6-deoxy-6-(1-hexamethyleneimino)-1-O-dodecyl-α-L-xylo-2-hexulofuranose], the IC50 is less than 1 µM in assay [1], less than 3 µM in assay [3] and less than 3 µM in the assay on BUD-8 human fibroblast. Moreover, the CC50 in assay [2] was 10.7 µM. Further, the GI50 is 3.87 µM in assay [2] (setting [4]) and 1.82 µM in assay [2] (setting [5]). Also, in assay [2], the IC (TGI) is 4.57 µM.
As to `CCCCCCCCCCCCOC[C@@]12O[C@@H](CNCCN3CCOCC3)[C@@H](O)[C@@H]1OC(C)(C)O2` [If, 2,3-O-Isopropylidene-6-deoxy-6-aminoethylmorpholinyl-1-O-dodecyl-α-L-xylo-2-hexulofuranose], the IC50 (in assay [1]; in assay [3]; with BUD-8 human fibroblast) was less than 1 µM in each case. Moreover, the CC50 in assay [2] was 11 µM. The GI50 was 4.68 µM in assay [2] (setting [4]) and 2.34 µM in assay [2] (setting [5]). In assay [2], the IC (TGI) is 5.13 µM.
As for `CCCCCCCCCCCCOC[C@@]12O[C@@H](CNCCN3CCCCC3)[C@@H](O)[C@@H]1OC(C)(C)O2` [Ig, 2,3-O-Isopropylidene-6-deoxy-6-aminoethylpiperidinyl-1-O-dodecyl-α-L-xylo-2-hexulofuranose], the figures for the IC50 (in assay [1]; in assay [3]; with BUD-8 human fibroblast) were less than 1 µM, less than 3 µM and less than 3 µM, respectively. Further, the CC50 in assay [2] was 20 µM. Moreover, the 50% growth inhibitory concentration (GI50) is 6.8 µM in assay [2] (setting [4]) and 3.39 µM in assay [2] (setting [5]). The IC (TGI) in assay [2] is 7.76 µM.
On to `CCCCCCCCCCCCOC[C@@]12O[C@@H](C)[C@@H](OCCN3CCCC3)[C@@H]1OC(C)(C)O2` [Il, 2,3-O-Isopropylidene-6-deoxy-1-O-dodecyl-4-O-ethylpyrrolidinyl-α-L-xylo-2-hexulofuranose], for which the half-maximal inhibitory concentration (IC50) (in assay [1]; in assay [3]; in the assay on BUD-8 human fibroblast) was less than 1 µM throughout. The CC50 in assay [2] is 28.8 µM. Besides, the results for the GI50 in assay [2] (setting [4]) and in assay [2] (setting [5]) were 8.68 µM and 4.07 µM, respectively. Further, the IC (TGI) in assay [2] was 10.5 µM. For the same compound, the “in vitro activity in words” value in assay [2] (various in vitro cell lines, IC50, average GI50, mean graph pattern) is “significant activity”.
Take `CCCCCCCCCCCCOC[C@@]12O[C@@H](C)[C@@H](OCCN3CCOCC3)[C@@H]1OC(C)(C)O2` [In, 2,3-O-Isopropylidene-6-deoxy-1-O-dodecyl-4-O-ethylmorpholinyl-α-L-xylo-2-hexulofuranose]: the IC50 amounted to 3.8 µM in assay [1], 10.5 µM in assay [3] and 12.9 µM with BUD-8 human fibroblast. Also, the CC50 in assay [2] was 91.2 µM. Further, the figures for the concentration for 50% growth inhibition (GI50) in assay [2] (setting [4]) and in assay [2] (setting [5]) were 74.9 µM and 36.3 µM, respectively. Further, the IC (TGI) in assay [2] is 72.4 µM.
Consider `CCCCCCCCCCCCOC[C@@]12O[C@@H](CN3CCCCCC3)[C@@H](OCCN3CCCC3)[C@@H]1OC(C)(C)O2` [Ir, 2,3-O-Isopropylidene-6-deoxy-1-O-dodecyl-4-O-ethylpyrrolidinyl-6-hexamethyleneimino-α-L-xylo-2-hexulofuranose], for which the IC50 (in assay [1]; in assay [3]; in the assay on BUD-8 human fibroblast) was less than 1 µM throughout. In addition, the CC50 in assay [2] is 21.4 µM. Besides, the GI50 is 3.22 µM in assay [2] (setting [4]) and 1.78 µM in assay [2] (setting [5]). In addition, in assay [2], the IC (TGI) is 8.13 µM.
Regarding `CCCCCCCCCCCCOC[C@@]12O[C@@H](CN3CCCCCC3)[C@@H](OCCN3CCCCC3)[C@@H]1OC(C)(C)O2` [It, 2,3-O-Isopropylidene-6-deoxy-1-O-dodecyl-4-O-ethylpiperidinyl-6-hexamethyleneimino-α-L-xylo-2-hexulofuranose], the IC50 (in assay [1]; in assay [3]; in the assay on BUD-8 human fibroblast) was less than 1 µM each time. The CC50 in assay [2] is 36.3 µM. The GI50 in assay [2] (setting [4]) is 2.38 µM; in assay [2] (setting [5]), 1.35 µM. Also, the IC (TGI) in assay [2] was 7.76 µM.
As for `CCCCCCCCCCCCOC[C@@]12O[C@@H](CN3CCCCCC3)[C@@H](OCCCN3CCCCC3)[C@@H]1OC(C)(C)O2` [Iu, 2,3-O-Isopropylidene-6-deoxy-1-O-dodecyl-4-O-propylpiperidinyl-6-hexamethyleneimino-α-L-xylo-2-hexulofuranose], the IC50 (in assay [1]; in assay [3]; in the assay with BUD-8 human fibroblast) was less than 1 µM each time. In addition, the CC50 in assay [2] is 28.8 µM. For the same compound, the figures for the GI50 in assay [2] (setting [4]) and in assay [2] (setting [5]) were 0.86 µM and 0.501 µM, respectively. In addition, the IC (TGI) in assay [2] was 3.72 µM.
As to `CCCCCCCCCCCCOC[C@@]12O[C@@H](CN3CCCCCC3)[C@@H](OCCN3CCOCC3)[C@@H]1OC(C)(C)O2` [Iv, 2,3-O-Isopropylidene-6-deoxy-1-O-dodecyl-4-O-ethylmorpholinyl-6-hexamethyleneimino-α-L-xylo-2-hexulofuranose], the IC50 (in assay [1]; in assay [3]; in the assay on BUD-8 human fibroblast) was less than 1 µM in each case. In addition, the CC50 in assay [2] is 44.7 µM. In addition, the results for the GI50 in assay [2] (setting [4]) and in assay [2] (setting [5]) were 3.2 µM and 1.82 µM, respectively. Besides, in assay [2], the IC (TGI) was 11.5 µM.
For the compound `CCCCCCCCCCCCOC[C@@]12O[C@@H](CN3CCCCCC3)[C@@H](OCCCc3ccccc3)[C@@H]1OC(C)(C)O2` [Iw, 2,3-O-Isopropylidene-6-deoxy-1-O-dodecyl-4-O-phenylpropyl-6-hexamethyleneimino-α-L-xylo-2-hexulofuranose], the IC50 (in assay [1]; in assay [3]; in the assay on BUD-8 human fibroblast) was less than 1 µM throughout. Besides, the CC50 in assay [2] was 16.6 µM. In addition, the GI50 is 4.18 µM in assay [2] (setting [4]) and 2.45 µM in assay [2] (setting [5]). Also, in assay [2], the IC (TGI) was 10 µM.
